Laboratory results published in patent US20060069132A1, “Azolecarboxamide herbicides” (priority 2004, published 2006).

Legend:
[1] = tested on: pigweed; assay: Test B pre-/postemergence herbicide test; assay type: in vivo, Amaranthus retroflexus
In short: (§1)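 Visual rating, 0 (no effect) to 100 (complete control), versus untreated controls after 13–15 d in greenhouse. Pre- and postemergence applications (postemergence plants 2–18 cm, 1–4 leaves); flooded paddy arm at 2-leaf stage. Compounds in non-phytotoxic solvent plus surfactant.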

[2] = tested on: morningglory; assay: Test A pre-/postemergence herbicide test; assay type: in vivo, Ipomoea spp.
In short: (§2)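 Both application timings were run together: directed soil spray over freshly planted seeds in sandy loam, and runoff spray onto 2–10 cm seedlings. Evaluation after ~10 days in greenhouse used a 0–100 visual scale versus untreated controls.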

[3] = tested on: wheat; assay: Test B postemergence herbicide test; assay type: in vivo, Triticum aestivum; design: key to Wheat plant response rating: 0 = no effect, 100 = complete control
In short: (§3)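 Treated at 2-leaf (paddy) or 1–4-leaf, 2–18 cm (postemergence); greenhouse 13–15 d; visual score vs control, 0 none to 100 complete control; dash = not tested.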

[4] = tested on: barnyardgrass; assay: Test B flooded paddy test; assay type: in vivo, Echinochloa crus-galli; details: 1000 g ai/ha, scale 0 to 100 (0 no effect, 100 complete control)
In short: (§4)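 Visual ratings, 0 (no effect) to 100 (complete control), made versus controls after 13–15 d greenhouse. Paddy plants treated at 2-leaf stage; postemergence plants at 1- to 4-leaf stage, 2–18 cm tall.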

[5] = tested on: morningglory; assay: Test B pre-/postemergence herbicide test; assay type: in vivo, Ipomoea coccinea
In short: as §1

[6] = tested on: Surinam grass; assay: Test B pre-/postemergence herbicide test; assay type: in vivo, Urochloa decumbens
In short: as §1

[7] = tested on: wild oat; assay: Test B postemergence herbicide test; assay type: in vivo, Avena fatua
In short: as §3

[8] = tested on: velvetleaf; assay: Test A pre-/postemergence herbicide test; assay type: in vivo, Abutilon theophrasti
In short: as §2

[9] = tested on: large crabgrass; assay: Test B pre-/postemergence herbicide test; assay type: in vivo, Digitaria sanguinalis
In short: as §1

[10] = tested on: giant foxtail; assay: Test B pre-/postemergence herbicide test; assay type: in vivo, Setaria faberi
In short: as §1

[11] = tested on: corn; assay: Test B pre-/postemergence herbicide test; assay type: in vivo, Zea mays
In short: as §1

[12] = tested on: small flower umbrella sedge; assay: Test B flooded paddy test; assay type: in vivo, Cyperus difformis; details: 1000 g ai/ha, scale 0 to 100 (0 no effect, 100 complete control)
In short: as §4

[13] = tested on: large crabgrass; assay: Test A pre-/postemergence herbicide test; assay type: in vivo, Digitaria sanguinalis
In short: as §2

[14] = tested on: giant foxtail; assay: Test A pre-/postemergence herbicide test; assay type: in vivo, Setaria faberi
In short: as §2

[15] = tested on: lambsquarters; assay: Test B pre-/postemergence herbicide test; assay type: in vivo, Chenopodium album
In short: as §1

[16] = tested on: barnyardgrass; assay: Test A pre-/postemergence herbicide test; assay type: in vivo, Echinochloa crus-galli
In short: as §2

[17] = tested on: blackgrass; assay: Test B postemergence herbicide test; assay type: in vivo, Alopecurus myosuroides
In short: as §4

[18] = tested on: cocklebur; assay: Test B pre-/postemergence herbicide test; assay type: in vivo, Xanthium strumarium
In short: as §1

[19] = tested on: ducksalad; assay: Test B flooded paddy test; assay type: in vivo, Heteranthera limosa; details: 1000 g ai/ha, scale 0 to 100 (0 no effect, 100 complete control)
In short: as §4

[20] = tested on: redroot pigweed; assay: Test A pre-/postemergence herbicide test; assay type: in vivo, Amaranthus retroflexus
In short: as §2

[21] = tested on: barnyardgrass; assay: Test B pre-/postemergence herbicide test; assay type: in vivo, Echinochloa crus-galli
In short: as §1

[22] = tested on: rice; assay: Test B flooded paddy test; assay type: in vivo, Oryza sativa; details: 1000 g ai/ha, scale 0 to 100 (0 no effect, 100 complete control)
In short: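 Read-out: visual comparison with controls, scored 0 to 100, where 100 means complete control and 0 no effect. Formulated chemicals were applied postemergence to plants 2–18 cm tall (1- to 4-leaf), or to flooded-paddy plants at the 2-leaf stage, then held 13 to 15 days under glass.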

[23] = tested on: velvetleaf; assay: Test B pre-/postemergence herbicide test; assay type: in vivo, Abutilon theophrasti; details: for Velvetleaf plant response rating: postemergence
In short: as §1

[24] = 125 g ai/ha; 0 is no effect, 100 is complete control; preemergence
[25] = 125 g ai/ha; visual rating, scale 0 (no effect) to 100 (complete control); postemergence
[26] = 500 g ai/ha; visual rating, 0 = no effect, 100 = complete control; preemergence
[27] = postemergence, 500 g ai/ha; scale 0 to 100, 0 is no effect, 100 is complete control
[28] = Postemergence, 500 g ai/ha, 0 to 100 scale, 0 no effect, 100 complete control
[29] = Postemergence, 2000 g ai/ha, 0 to 100 scale, 0 no effect, 100 complete control
[30] = Preemergence, 2000 g ai/ha, visual rating, 0 to 100 scale (0 no effect, 100 complete control)
[31] = preemergence, 500 g ai/ha, visual injury, 0 to 100 scale (0 no effect, 100 complete control)
[32] = 500 g ai/ha; visual rating 0-100, 0 no effect, 100 complete control; preemergence
[33] = postemergence, 125 g ai/ha; visual rating, scale 0 (no effect) to 100 (complete control)
[34] = postemergence, 500 g ai/ha; visual rating, scale 0 (no effect) to 100 (complete control)
[35] = preemergence, 125 g ai/ha; 0 to 100 scale, 0 is no effect, 100 is complete control
[36] = Preemergence, 500 g ai/ha, visual rating, 0 to 100 scale (0 no effect, 100 complete control)

CCc1nn(C2CCCC2)nc1C(=O)Nc1cccc(C(=O)N2CC=CC2)c1 [Compound 354]
Plant response rating (0 to 100 scale), Pigweed [1, 24]: 0
Pigweed plant response rating [1, 25]: 40
Plant response rating, Pigweed [1, 26]: 90
Pigweed plant response rating [1, 27]: 50
Morningglory plant response rating [2, 28]: 20
Plant response rating, Morningglory [2, 29]: 85
Morningglory plant response rating [2, 30]: 20
Morningglory plant response rating [2, 31]: 15
Wheat plant response rating [3, 25]: 0
Wheat plant response rating [3, 27]: 20
Barnyardgrass plant response rating [4]: 40
Plant response rating (0 to 100 scale), Morningglory [5, 24]: 0
Morningglory plant response rating [5, 25]: 30
Plant response rating, Morningglory [5, 26]: 0
Morningglory plant response rating [5, 27]: 60
Plant response rating (0 to 100 scale), Surinam Grass [6, 24]: 0
Surinam Grass plant response rating [6, 25]: 0
Plant response rating, Surinam Grass [6, 26]: 20
Surinam Grass plant response rating [6, 27]: 20
Oat, Wild plant response rating [7, 25]: 0
Oat, Wild plant response rating [7, 27]: 20
Velvetleaf plant response rating [8, 28]: 50
Plant response rating, Velvetleaf [8, 29]: 70
Velvetleaf plant response rating [8, 30]: 45
Velvetleaf plant response rating [8, 31]: 5
Plant response rating (0 to 100 scale), Crabgrass, Large [9, 24]: 20
Crabgrass, Large plant response rating [9, 25]: 0
Plant response rating, Crabgrass, Large [9, 26]: 80
Crabgrass, Large plant response rating [9, 27]: 10
Plant response rating (0 to 100 scale), Foxtail, Giant [10, 24]: 10
Foxtail, Giant plant response rating [10, 25]: 10
Plant response rating, Foxtail, Giant [10, 26]: 70
Foxtail, Giant plant response rating [10, 27]: 20
Plant response rating (0 to 100 scale), Corn [11, 24]: 20
Corn plant response rating [11, 25]: 0
Plant response rating, Corn [11, 26]: 20
Corn plant response rating [11, 27]: 0
Sedge, Umbrella plant response rating [12]: 50
Crabgrass, Large plant response rating [13, 28]: 10
Plant response rating, Crabgrass, Large [13, 29]: 20
Crabgrass, Large plant response rating [13, 30]: 20
Crabgrass, Large plant response rating [13, 31]: 10
Foxtail, Giant plant response rating [14, 28]: 10
Plant response rating, Foxtail, Giant [14, 29]: 50
Foxtail, Giant plant response rating [14, 30]: 80
Foxtail, Giant plant response rating [14, 31]: 15
Lambsquarters plant response rating [15, 25]: 10
Plant response rating, Lambsquarters [15, 26]: 100
Lambsquarters plant response rating [15, 27]: 50
Barnyardgrass plant response rating [16, 28]: 20
Plant response rating, Barnyardgrass [16, 29]: 70
Barnyardgrass plant response rating [16, 30]: 55
Barnyardgrass plant response rating [16, 31]: 0
Blackgrass plant response rating [17, 25]: 10
Blackgrass plant response rating [17, 27]: 20
Plant response rating (0 to 100 scale), Cocklebur [18, 24]: 0
Cocklebur plant response rating [18, 25]: 10
Plant response rating, Cocklebur [18, 26]: 0
Cocklebur plant response rating [18, 27]: 20
Ducksalad plant response rating [19]: 50
Pigweed plant response rating [20, 28]: 70
Plant response rating, Pigweed [20, 29]: 80
Pigweed plant response rating [20, 30]: 70
Pigweed plant response rating [20, 31]: 60
Plant response rating (0 to 100 scale), Barnyardgrass [21, 24]: 0
Barnyardgrass plant response rating [21, 25]: 0
Plant response rating, Barnyardgrass [21, 26]: 60
Barnyardgrass plant response rating [21, 27]: 0
Rice plant response rating [22]: 50
Plant response rating (0 to 100 scale), Velvetleaf ([23]; 125 g ai/ha, 0 is no effect, 100 is complete control, preemergence): 0
Velvetleaf plant response rating ([23]; 500 g ai/ha, scale 0 to 100, 0 is no effect, 100 is complete control): 10

CCCCNS(=O)(=O)c1cccc(NC(=O)c2cc(C(C)(C)C)nn2C)c1 [Compound 125]
Plant response rating, Pigweed [1, 32]: 0
Pigweed plant response rating [1, 33]: 0
Pigweed plant response rating [1, 34]: 0
Plant response rating, Pigweed [1, 35]: 0
Morningglory plant response rating [2, 28]: 0
Plant response rating, Morningglory [2, 29]: 0
Morningglory plant response rating [2, 36]: 0
Morningglory plant response rating [2, 30]: 0
Wheat plant response rating [3, 33]: 0
Wheat plant response rating [3, 34]: 0
Barnyardgrass plant response rating ([4]; visual rating, 13 to 15 days): 0
Morningglory plant response rating [5, 33]: 0
Morningglory plant response rating [5, 34]: 0
Plant response rating, Morningglory [5, 35]: 0
Plant response rating, Surinam Grass [6, 32]: 0
Surinam Grass plant response rating [6, 33]: 0
Surinam Grass plant response rating [6, 34]: 10
Plant response rating, Surinam Grass [6, 35]: 0
Oat, Wild plant response rating [7, 33]: 0
Oat, Wild plant response rating [7, 34]: 0
Velvetleaf plant response rating [8, 28]: 0
Plant response rating, Velvetleaf [8, 29]: 0
Velvetleaf plant response rating [8, 30]: 0
Velvetleaf plant response rating [8, 31]: 0
Plant response rating, Crabgrass, Large [9, 32]: 0
Crabgrass, Large plant response rating [9, 33]: 0
Crabgrass, Large plant response rating [9, 34]: 0
Plant response rating, Crabgrass, Large [9, 35]: 0
Plant response rating, Foxtail, Giant [10, 32]: 0
Foxtail, Giant plant response rating [10, 33]: 0
Foxtail, Giant plant response rating [10, 34]: 0
Plant response rating, Foxtail, Giant [10, 35]: 0
Plant response rating, Corn [11, 32]: 0
Corn plant response rating [11, 33]: 0
Corn plant response rating [11, 34]: 0
Plant response rating, Corn [11, 35]: 0
Sedge, Umbrella plant response rating ([12]; visual rating, 13 to 15 days): 0
Crabgrass, Large plant response rating [13, 28]: 0
Plant response rating, Crabgrass, Large [13, 29]: 0
Crabgrass, Large plant response rating [13, 36]: 0
Crabgrass, Large plant response rating [13, 30]: 0
Foxtail, Giant plant response rating [14, 28]: 0
Plant response rating, Foxtail, Giant [14, 29]: 0
Foxtail, Giant plant response rating [14, 36]: 0
Foxtail, Giant plant response rating [14, 30]: 0
Plant response rating, Lambsquarters [15, 32]: 0
Lambsquarters plant response rating [15, 33]: 0
Lambsquarters plant response rating [15, 34]: 20
Plant response rating, Lambsquarters [15, 35]: 0
Barnyardgrass plant response rating [16, 28]: 0
Plant response rating, Barnyardgrass [16, 29]: 0
Barnyardgrass plant response rating [16, 36]: 0
Barnyardgrass plant response rating [16, 30]: 0
Blackgrass plant response rating [17, 33]: 0
Blackgrass plant response rating [17, 34]: 0
Plant response rating, Cocklebur [18, 32]: 0
Cocklebur plant response rating [18, 33]: 0
Cocklebur plant response rating [18, 34]: 0
Plant response rating, Cocklebur [18, 35]: 0
Ducksalad plant response rating ([19]; visual rating, 13 to 15 days): 0
Pigweed plant response rating [20, 28]: 20
Plant response rating, Pigweed [20, 29]: 20
Pigweed plant response rating [20, 30]: 0
Pigweed plant response rating [20, 31]: 0
Plant response rating, Barnyardgrass [21, 32]: 0
Barnyardgrass plant response rating [21, 33]: 0
Barnyardgrass plant response rating [21, 34]: 0
Plant response rating, Barnyardgrass [21, 35]: 0
Rice plant response rating ([22]; visual rating, 13 to 15 days): 0
Plant response rating, Velvetleaf ([23]; 500 g ai/ha, visual rating 0-100, 0 no effect, 100 complete control, preemergence): 0
Velvetleaf plant response rating ([23]; 125 g ai/ha, visual rating, scale 0 (no effect) to 100 (complete control)): 0
Velvetleaf plant response rating ([23]; 500 g ai/ha, visual rating, scale 0 (no effect) to 100 (complete control)): 0
Plant response rating, Velvetleaf ([23]; preemergence, 125 g ai/ha, 0 to 100 scale, 0 is no effect, 100 is complete control): 0
